Paper PMC11845477, “Exploring the principles behind antibiotics with limited resistance” (Nature Communications, 2025)

System: A. baumannii ATCC 17978 (SEN) and A. baumannii ATCC BAA-1605 (MDR)
Assay: Adaptive laboratory evolution (ALE), relative MIC of evolved lines
Format: cell-based, Acinetobacter baumannii
Conditions: for Relative MIC (log10): AB-SEN (Acinetobacter baumannii ATCC 17978)
Description: Using the same set of bacterial strains, we initiated adaptive laboratory evolution with the aim to maximize the level of antibiotic resistance in the populations achieved during a longer, but fixed time period.
An established protocol for adaptive laboratory evolution[46],[73] was followed to propagate populations with the highest resistance levels. Starting with an antibiotic concentration that caused approximately 50% growth inhibition, ten parallel populations for each antibiotic-ancestor strain combination were grown for 72 hours at 37 °C with continuous shaking (300 RPM). MHB broth medium was used unless stated otherwise. After each incubation, 20 µl of each culture was transferred to four new wells containing fresh medium with increasing antibiotic concentrations (0.5×, 1×, 1.5×, and 2.5× the previous concentration) in a chessboard layout to monitor potential cross-contamination. Growth was monitored by measuring OD600 using a Biotek Synergy 2 microplate reader, and only populations grown in the highest drug concentration with an OD600 > 0.2 were transferred further.
A robotic liquid handling system was used to automatically prepare a 11 to 16-step serial dilution in 384-well microtiter plates (Greiner). A final concentration of 5 × 10^5 bacterial cells per mL were inoculated into each well containing 60 µL MHB medium. Bacterial cultures were incubated at 37 °C with continuous shaking (Infors shaker, 900 rpm with 3 mm throw) for 18 hours (2 replicates from each). Cell growth was monitored by measuring the optical density (OD600 values, using Biotek Synergy microplate reader). MIC was defined as the antibiotic concentration of complete growth inhibition (i.e., OD600 < 0.05). Relative MIC was calculated as follows:1 relativeMIC=MICevolved/MICancestor […]
Supplementary Figure 4. Resistance levels following adaptive laboratory evolution across bacterial strains. The level of resistance was measured as the fold change in relative MIC between evolved and ancestral strains after ~60 days of adaptive laboratory evolution. Data are grouped by bacterial strain (A. baumannii (AB), E. coli (EC), K. pneumoniae (KP), and P. aeruginosa (PA)) and categorized as either multidrug-resistant (MDR) or sensitive (SEN). Each data point represents a laboratory evolved line, and boxplots show the median, first and third quartiles, with whiskers indicating the 5th and 95th percentiles.
Statistical analysis was performed using two-sided Dunn’s post-hoc test with Benjamini-Hochberg correction for multiple comparisons (****/ ***/ **/ * indicates p < 0.0001/ 0.001/ 0.01/ 0.05). For detailed information on antibiotic and bacterial species, see Supplementary Table 1. For mode of action groups, refer to Table 1. Source data are provided as a Source Data file.

[1] = AB-SEN (ATCC 17978), evolved line 1, MIC of evolved line / MIC of ancestor
[2] = AB-SEN (ATCC 17978), evolved line 2, MIC of evolved line / MIC of ancestor
[3] = AB-SEN (ATCC 17978), evolved line 3, MIC of evolved line / MIC of ancestor
[4] = AB-SEN (ATCC 17978), evolved line 4, MIC of evolved line / MIC of ancestor
[5] = AB-SEN (ATCC 17978), evolved line 5, MIC of evolved line / MIC of ancestor
[6] = AB-SEN (ATCC 17978), evolved line 6, MIC of evolved line / MIC of ancestor
[7] = AB-SEN (ATCC 17978), evolved line 7, MIC of evolved line / MIC of ancestor
[8] = AB-SEN (ATCC 17978), evolved line 8, MIC of evolved line / MIC of ancestor
[9] = AB-SEN (ATCC 17978), evolved line 9, MIC of evolved line / MIC of ancestor
[10] = AB-SEN (ATCC 17978), evolved line 10, MIC of evolved line / MIC of ancestor
[11] = evolved line 2 adapted to the named antibiotic
[12] = evolved line 6 adapted to the named antibiotic
[13] = evolved line 9 adapted to the named antibiotic
[14] = Acinetobacter baumannii ATCC 17978 (AB-SEN), evolved line 1
[15] = Acinetobacter baumannii ATCC 17978 (AB-SEN), evolved line 2
[16] = Acinetobacter baumannii ATCC 17978 (AB-SEN), evolved line 3
[17] = Acinetobacter baumannii ATCC 17978 (AB-SEN), evolved line 4
[18] = Acinetobacter baumannii ATCC 17978 (AB-SEN), evolved line 5
[19] = Acinetobacter baumannii ATCC 17978 (AB-SEN), evolved line 6
[20] = Acinetobacter baumannii ATCC 17978 (AB-SEN), evolved line 7
[21] = Acinetobacter baumannii ATCC 17978 (AB-SEN), evolved line 8
[22] = Acinetobacter baumannii ATCC 17978 (AB-SEN), evolved line 9
[23] = Acinetobacter baumannii ATCC 17978 (AB-SEN), evolved line 10
[24] = evolved line 4 adapted to the named antibiotic
[25] = evolved line 5 adapted to the named antibiotic

SMILES | Relative MIC [1] | Relative MIC [2] | Relative MIC [3] | Relative MIC [4] | Relative MIC [5] | Relative MIC [6] | Relative MIC [7] | Relative MIC [8] | Relative MIC [9] | Relative MIC [10] | Relative MIC (log10) [11] | Relative MIC [14] | Relative MIC [15] | Relative MIC [16] | Relative MIC [17] | Relative MIC [18] | Relative MIC [19] | Relative MIC [20] | Relative MIC [21] | Relative MIC [22] | also measured
CN[C@@H]1[C@@H](O[C@H]2O[C@H](CO)[C@@H](N)[C@H](O)[C@H]2O)OC2C[C@@H](N)[C@@H](O[C@H]3[C@H](O)[C@@H](O)[C@H](N)C[C@@H]3N)OC2[C@@H]1O (stereo partly drawn) [Apramycin] | 32 | 64 | 32 | 16 | 32 | 16 | 64 | 32 | 32 | 32 | 1.806 | 32 | 64 | 32 | 16 | 32 | 16 | 64 | 32 | 32 | Relative MIC (log10) (evolved line 3 adapted to the named antibiotic): 1.505; Relative MIC (log10) [12]: 1.204; Relative MIC (log10) [13]: 1.505; Relative MIC (log10) (evolved line 10 adapted to the named antibiotic): 1.505; Relative MIC [23]: 32
Nc1nc(-n2cc(C(=O)O)c(=O)c3cc(F)c(N4CC(O)C4)c(Cl)c32)c(F)cc1F [Delafloxacin] | 256 | 128 | 256 | 256 | 512 | 256 | 128 | 64 | 128 | 128 | 2.107 | 256 | 128 | 256 | 256 | 512 | 256 | 128 | 64 | 128 | Relative MIC (log10) [24]: 2.408; Relative MIC (log10) [25]: 2.709; Relative MIC (log10) [12]: 2.408; Relative MIC (log10) [13]: 2.107; Relative MIC [23]: 128
C[C@H]1c2cccc(O)c2C(=O)C2=C(O)[C@]3(O)C(=O)C(C(N)=O)=C(O)[C@@H](N(C)C)[C@@H]3[C@@H](O)[C@@H]21 [Doxycycline] | 32 | 64 | 16 | 32 | 32 | 16 | 32 | 32 | 16 | 16 | 1.806 | 32 | 64 | 16 | 32 | 32 | 16 | 32 | 32 | 16 | Relative MIC (log10) [24]: 1.505; Relative MIC (log10) [25]: 1.505; Relative MIC (log10) (evolved line 7 adapted to the named antibiotic): 1.505; Relative MIC (log10) (evolved line 8 adapted to the named antibiotic): 1.505; Relative MIC [23]: 16
